Values after ≈ are worked out from the molar mass of the structure shown.
Experiments:
SK-OV-3 = experiment: Antiproliferative activity against human SK-OV-3 cells assessed as cell growth inhibition measured for 72 hrs; type: functional, cell-based; settings: SK-OV-3, 72 h
A549 [1] = experiment: Antiproliferative activity against human A549 cells assessed as cell growth inhibition measured for 72 hrs; type: functional, cell-based; settings: A549, 72 h
NCI-H460 = experiment: Cytotoxicity against human NCI-H460 cells assessed as reduction in cell viability; type: functional, cell-based
[2] = Inhibition of Saccharomyces cerevisiae 20S proteosome
HCT-116 = experiment: Cytotoxicity against human HCT-116 cells assessed as reduction in cell viability; type: functional, cell-based
Plasmodium falciparum [3] = experiment: Antimalarial activity against Plasmodium falciparum W2 assessed as reduction in parasite growth; type: functional
Plasmodium falciparum [4] = experiment: Antimalarial activity against Plasmodium falciparum D6 assessed as reduction in parasite growth; type: functional
A549 [5] = experiment: Antiproliferative activity against human A549 cells assessed as cell viability by WST-8 colorimetric assay; type: functional, cell-based
MCF7 = experiment: Antiproliferative activity against human MCF7 cells assessed as cell viability by WST-8 colorimetric assay; type: functional, cell-based
P388 [6] = experiment: Antiproliferative activity against mouse P388 cells assessed as cell viability by WST-8 colorimetric assay; type: functional, cell-based
Leishmania donovani = experiment: Antileishmanial activity against Leishmania donovani assessed as parasite growth inhibition; type: functional, organism-based
[7] = Activation of hypoxia-induced HIF-1 in human T47D cells; type: cell-based
Candida albicans [8] = experiment: Antifungal activity against Candida albicans; type: functional
Staphylococcus aureus [9] = experiment: Antibacterial activity against Staphylococcus aureus SH1000 cultured in iron rich media assessed as reduction in bacterial cell growth; type: functional
Staphylococcus aureus [10] = experiment: Antibacterial activity against Staphylococcus aureus SH1000 cultured in iron depleted media assessed as reduction in bacterial cell growth; type: functional
[11] = Inhibition of sodium channel (unknown origin); parameters: species or system Homo sapiens
Streptococcus [12] = experiment: Antibiofilm activity against Streptococcus assessed as inhibition of biofilm maturation; type: functional, organism-based
Streptococcus [13] = experiment: Antibacterial activity against Streptococcus; type: functional
P388 [14] = experiment: Antiproliferative activity against mouse P388 cells assessed as cell growth inhibition; type: functional, cell-based
[15] = Cytotoxicity against human bladder carcinoma cell assessed as reduction in cell viability; type: functional, cell-based
OVCAR-3 = experiment: Cytotoxicity against human OVCAR-3 cells assessed as reduction in cell viability; type: functional, cell-based
MAXF401 cell line = experiment: Cytotoxicity against human NCI-MAXF401 cells assessed as reduction in cell viability; type: functional, cell-based
Candida albicans [16] = experiment: Antifungal activity against Candida albicans as reduction in fungal growth; type: functional, organism-based

In the case of `C=C/C=C\[C@H](C)[C@H](OC(N)=O)[C@@H](C)[C@H](O)[C@@H](C)C/C(C)=C\[C@H](C)[C@@H](O)[C@@H](C)/C=C\[C@@H](O)C[C@@H]1OC(=O)C(C)=C[C@H]1C`, the IC50 (SK-OV-3) is reported as 6.1 nM and the IC50 (A549 [1]) is reported as 1.8 nM.

Work on `CCCCCC(=O)N[C@H](C(=O)N[C@@H](CCS(C)(=O)=O)C(=O)N[C@@H](CC(C)C)C(=O)[C@@]1(C)CO1)C(C)C` yielded an EC50 (NCI-H460) of 6 nM, an IC50 [2] of 2.6 nM and an EC50 (HCT-116) of 43 nM.

With `CC(C)=CCC[C@H](C)c1ccc(C)cc1O` the MIC (Plasmodium falciparum [3]) was 3.6 µg/mL (≈ 16.5 µM) and the MIC (Plasmodium falciparum [4]) was 1.8 µg/mL (≈ 8.24 µM).

Work on `CCC[C@H]1C[C@@H](OC)C[C@H](C)C[C@@H]2C[C@@H](OC(=O)/C=C\CCc3coc(/C=C\CNC(=O)OC)n3)C[C@H](CC(=O)O1)O2` yielded an IC50 (A549 [5]) of 43.9 nM, an IC50 (MCF7) of 33 nM and an IC50 (P388 [6]) of 0.72 nM.

Work on `CC(C)=CCC[C@H](C)c1ccc(C)cc1OC(=O)c1ccncc1` yielded an IC50 (Leishmania donovani) of 600 nM.

`C=C[C@@H]1CSC(C[C@@H](C)[C@@H](C)C[C@H](C)CCN(C)C(=O)[C@H](C)CC)=N1` showed an IC50 [7] of 5.6 nM.

`CO[C@H]1[S+]([O-])/C2=C\C(=O)[C@](C)(O[C@H]3CC[C@H](N(C)C)[C@@H](C)O3)[C@H](O)CC/C(C)=C\[C@@H]3[C@@H](C)[C@](C)(Cl)[C@@H](C[C@H]3O[C@H]3CC[C@H](N(C)C)[C@@H](C)O3)OC(=O)[C@@H]3CSC(=N3)[C@]1(C)N2` (some centres not stated) showed an MIC (Candida albicans [8]) of 16 µg/mL (≈ 17.7 µM).

For `CCC(=O)[C@@H](C)C[C@@H](C)C[C@@H](C)CC[C@H](O)CC(=O)[C@H](CC(C)C)[C@H](O)c1cc(O)cc(O)c1`, the MIC (Staphylococcus aureus [9]) was 63 µM (≈ 30.2 µg/mL) and the MIC (Staphylococcus aureus [10]) was 63 µM (≈ 30.2 µg/mL).

In the case of `CO/C(=C/C(=O)N1C(=O)C=C[C@@H]1C)CCNC(=O)CC/C=C/C(C)CC/C(=C/Cl)CCCC#CBr` (some centres not stated), the IC50 [11] is reported as 5000 nM.

`C[C@H]1/C=C/[C@H]2OC(C)(C)O[C@H]2C(=O)O[C@H](CCCCCCCC(=O)O)[C@@H](C)CCC1` showed an IC50 (Streptococcus [12]) of 44000 nM and an MIC (Streptococcus [13]) of 250 µM (≈ 106 µg/mL).

With `C=CCCC/C(=C\Cl)CCC(C)/C=C/CCC(=O)NCC/C(=C\C(=O)N1C(=O)C=C[C@@H]1C)OC` (some centres not stated) the IC50 [11] was 5000 nM.

`CCC(=O)[C@@H](C)C[C@@H](C)C[C@@H](C)CC[C@H](O)C[C@H](O)[C@@H](CC(C)C)[C@H](O)c1cc(O)cc(O)c1` gave an MIC (Staphylococcus aureus [9]) of 125 µM (≈ 60.1 µg/mL) and an MIC (Staphylococcus aureus [10]) of 125 µM (≈ 60.1 µg/mL).

For `C#CCCC/C(=C\Cl)CCC(C)/C=C/CCC(=O)NCC/C(=C\C(=O)N1C(=O)C=C[C@@H]1C)OC` (some centres not stated), the IC50 [11] was 5000 nM.

With `CC(=O)[C@@H](C)C[C@@H](C)C[C@@H](C)CC[C@H](O)C[C@H](O)[C@H](CC(C)C)[C@H](O)c1cc(O)cc(O)c1` the MIC (Staphylococcus aureus [9]) was 500 µM (≈ 233 µg/mL) and the MIC (Staphylococcus aureus [10]) was 500 µM (≈ 233 µg/mL).

With `C[C@H]1/C=C/[C@H]2OC(C)(C)O[C@H]2C(=O)O[C@H](c2cccc(CCCCC(=O)O)c2)[C@@H](C)/C=C/C1` the IC50 (Streptococcus [12]) was 63000 nM.

For `CCC(=O)[C@@H](C)C[C@@H](C)C[C@@H](C)CC[C@H](O)C[C@H](O)[C@H](CC(C)C)[C@H](O)c1cc(O)cc(O)c1`, the MIC (Staphylococcus aureus [9]) was 125 µM (≈ 60.1 µg/mL) and the MIC (Staphylococcus aureus [10]) was 125 µM (≈ 60.1 µg/mL).

With `CCCCCCOC(=O)C[C@H]1C[C@H](OC(=O)/C=C\CCc2coc(/C=C\CNC(=O)OC)n2)C[C@@H](/C=C/c2ccccc2)O1` the IC50 (A549 [5]) was 1.6 nM.

Work on `CCCCCC(=O)N[C@H](C(=O)N[C@@H](CC[S+](C)[O-])C(=O)N[C@@H](CC(C)C)C(=O)[C@@]1(C)CO1)C(C)C` (some centres not stated) yielded an EC50 (NCI-H460) of 9 nM, an IC50 [2] of 2.5 nM and an EC50 (HCT-116) of 19 nM.

With `CCCCCCCCCC[C@H](O)C[C@H](O)[C@H](CC(C)C)[C@H](O)c1cc(O)cc(O)c1` the MIC (Staphylococcus aureus [9]) was 8 µM (≈ 3.4 µg/mL) and the MIC (Staphylococcus aureus [10]) was 8 µM (≈ 3.4 µg/mL).

Molecule `CCC(=O)CCCCCCC[C@H](O)C[C@H](O)[C@H](CC(C)C)[C@H](O)c1cc(O)cc(O)c1` has an MIC (Staphylococcus aureus [9]) of over 500 µM and an MIC (Staphylococcus aureus [10]) of 250 µM (≈ 110 µg/mL).

With `CCC(=O)[C@@H](C)C[C@@H](C)C[C@@H](C)CC[C@H](O)C[C@H](O)[C@H](CC(C)C)[C@H](O)c1cc(OC)cc(OC)c1` the MIC (Staphylococcus aureus [9]) was over 500 µM and the MIC (Staphylococcus aureus [10]) was over 500 µM.

`CC[C@H](O)C[C@H](O)[C@H](CC(C)C)[C@H](O)c1cc(O)cc(O)c1` showed an MIC (Staphylococcus aureus [9]) of over 500 µM and an MIC (Staphylococcus aureus [10]) of over 500 µM.

With `CC(C)C[C@H]([C@H](O)c1cc(O)cc(O)c1)[C@@H](O)C[C@@H](O)CC[C@H](C)C[C@H](C)C[C@H](C)CO` the MIC (Staphylococcus aureus [9]) was 500 µM (≈ 227 µg/mL) and the MIC (Staphylococcus aureus [10]) was 500 µM (≈ 227 µg/mL).

`CCCC(=O)[C@@H](C)C[C@@H](C)C[C@@H](C)CC[C@H](O)C[C@H](O)[C@H](CC(C)C)[C@H](O)c1cc(O)cc(O)c1` gave an MIC (Staphylococcus aureus [9]) of 63 µM (≈ 31.2 µg/mL) and an MIC (Staphylococcus aureus [10]) of 63 µM (≈ 31.2 µg/mL).

With `C=C/C=C\[C@H](C)[C@H](OC(N)=O)[C@@H](C)[C@H](O)[C@@H](C)C/C(C)=C\[C@H](C)[C@@H](O)[C@@H](C)/C=C\[C@@H](O)C[C@@H]1OC(=O)[C@H](C)[C@@H](O)[C@H]1C` [DISERMOLIDE] the IC50 (SK-OV-3) was 6.1 nM, the IC50 (A549 [1]) was 1.8 nM and the IC50 (P388 [14]) was 0.5 µg/mL (≈ 0.842 µM).

Work on `CC1=CC[C@H]2[C@](C)(CO)CCC[C@]2(C)[C@H]1C[C@@]12O[C@@H]1C(=O)C(CO)=C[C@H]2O` [EPOXYPHOLAMIN A] yielded an IC50 [15] of 0.017 µg/mL (≈ 0.0452 µM), an IC50 (OVCAR-3) of 0.017 µg/mL (≈ 0.0452 µM) and an IC50 (MAXF401 cell line) of 0.01 µg/mL (≈ 0.0266 µM).

`CC(=O)O[C@@H]1c2nc(cs2)C(=O)O[C@@H](CCCC(C)(Cl)Cl)[C@H](C)C(=O)O[C@@H](C(C)(C)O)c2nc(cs2)C(=O)OC1(C)C` [HECTOCHLORIN] gave an IC50 (Candida albicans [16]) of 20 nM.

With `CC(=O)O[C@H]1C(=O)[C@@]2(C)[C@H]([C@H](OC(=O)c3ccccc3)[C@]3(O)C[C@H](OC(=O)[C@H](O)[C@@H](NC(=O)c4ccccc4)c4ccccc4)C(C)=C1C3(C)C)[C@]1(OC(C)=O)CO[C@@H]1C[C@@H]2O` [PACLITAXEL] the IC50 (SK-OV-3) was 31.3 nM and the IC50 (A549 [1]) was 3.8 nM.
